The test system of one data set is Candida parapsilosis. Briefly: microbe, parasite or virus in culture. Format: cell-based. The settings on record: CLSI guidelines; for MIC: isolated Candida parapsilosis strain (cutaneous swab and urine culture); for Susceptibility of the isolated Candida strain: isolated Candida parapsilosis strain. How it is done: (§1) Cutaneous swab and urine culture both yielded Candida parapsilosis. The fungal load in urine was 1,000,000 CFU/mL. Susceptibility tests were performed according to the Clinical and Laboratory Standards Institute (CLSI) guidelines. Blood cultures resulted negative, but the child had been on antimicrobial therapy for several days. The isolated Candida strain was susceptible to micafungin (MIC, 0.5 µg/mL), anidulafungin (MIC, 2 µg/mL), fluconazole (MIC, 0.5 µg/mL), itraconazole (MIC, 0.06 µg/mL), voriconazole (MIC, <0.008 µg/mL) and amphotericin B (MIC, 0.5 µg/mL). Among the effective antifungals, we chose micafungin because of the feasibility of plasma concentration monitoring via heel stick capillary samples [8]. After given and obtained informed consent from the parents, both in relation to the high dosage of micafungin to be administered and monitored and to the participation in clinical trials and publications, micafungin was administered intravenously at a dose of 8 mg/kg/day; it was diluted in 0.9% saline solution at a concentration of 2 mg/mL and infused intravenously through epicutaneo-cava catheter in one hour. Plasma micafungin concentrations were measured by high performance liquid chromatography (HPLC) on the third day of the starting of therapy. The lower limit of detection (LLOD) of micafungin was 0.5 mg/L, and the lower limit of quantification (LLOQ) was 1 mg/L. (Table 1).

A short description of data set [1]: Plasma micafungin concentration monitoring by HPLC. It counts as in vivo, human preterm neonate. The settings on record: one patient. How it is done:
as §1
(§2) Given the severe clinical conditions of our patient, the epicutaneo-cava catheter was difficult to replace safely. The systemic therapy allowed complete infection control. […] We monitored plasma concentration of micafungin on 0.3 mL heel puncture blood samples, as previously described, in order to avoid excessive blood draws in a patient of low weight and in such severe clinical conditions.

The nature of data set [2]: Clinical tolerability of micafungin (case report). It counts as in vivo, human preterm neonate. The settings on record: 8 mg/kg/day; for Side effects / tolerability: baby with previous cholestasis. Here is the method: as §2
Data set [3] relates to confirmed or suspected ICIs. The settings on record: 8 mg/kg/day; 35 neonates with confirmed or suspected ICIs; cited from earlier work. The source says: Invasive Candida infections (ICIs) are a major cause of morbidity and mortality among very preterm infants; Candida albicans is the most frequently occurring species, although Candida parapsilosis infections are increasingly reported in preterm neonates. Despite the high minimum inhibitory concentration (MIC) necessary for Candida parapsilosis eradication, echinocandins have a prominent role when an ICI occurs in very preterm infants. These patients often carry a central vascular catheter in which Candida parapsilosis forms a biofilm, due to its adherence properties that favo ...

The test system of data set [4] is invasive Candida parapsilosis infection. Description: Clinical treatment of invasive Candida parapsilosis infection (case report). The settings on record: 8 mg/kg/day; extremely preterm neonate with invasive Candida parapsilosis infection. Format: in vivo, human preterm neonate. How it is done: as §1, with “1). […]” for “1).”

Converted amounts (≈) assume the structure as drawn. Read-outs that look alike come from different tables or passages of the source. Starred links: 1 amine or outer side, 2 acyl side, 3 side chain; linkers in the order of their positions; H or OH if unused. Positions of bridges follow the written chain, without caps; N, C: chain ends. Non-standard residues stand in square brackets, D forms with d. Residues, ends and D or L forms follow the SMILES beside them. *: point of attachment. hTyr(3S-OH,4S-OH,3'-OSO3H) = N[C@H](C(=O)O)[C@H](O)[C@@H](O)c1ccc(O)c(OS(=O)(=O)O)c1; pTerphenylCO(4''-OnC5H11) = CCCCCOc1ccc(-c2ccc(-c3ccc(C(=O)*)cc3)cc2)cc1; Orn(4R-OH,5R-OH) = O=C([C@H](C[C@@H](O)[C@@H](O)N[*:3])N[*:1])[*:2]; hTyr(3S-OH,4S-OH) = N[C@H](C(=O)O)[C@H](O)[C@@H](O)c1ccc(O)cc1; Pro(3S-OH,4S-Me) = C[C@H]1CN[C@H](C(=O)O)[C@H]1O; X1 = CCCCCOc1ccc(-c2cc(-c3ccc(C(=O)*)cc3)no2)cc1; Gln(3R-OH) = NC(=O)C[C@@H](O)[C@H](N)C(=O)O; Hyp = O=C(O)[C@@H]1C[C@@H](O)CN1

On to `C[C@@H]1[C@H](O)[C@@H](C)/C=C/C=C/C=C/C=C/C=C/C=C/C=C/[C@H](O[C@@H]2O[C@H](C)[C@@H](O)[C@H](N)[C@@H]2O)C[C@@H]2O[C@](O)(C[C@@H](O)C[C@@H](O)[C@H](O)CC[C@@H](O)C[C@@H](O)CC(=O)O[C@H]1C)C[C@H](O)[C@H]2C(=O)O` [amphotericin B], for which, in the data set with Candida parapsilosis (read-out: MIC), the MIC is 0.5 µg/mL (≈ 0.541 µM). Moreover, the “Susceptibility of the isolated Candida strain” value (“Susceptibility” below) in the data set with Candida parapsilosis is “susceptible”.
In the case of `CCCCCOc1ccc(-c2ccc(-c3ccc(C(=O)N[C@H]4C[C@@H](O)[C@@H](O)NC(=O)[C@@H]5[C@@H](O)[C@@H](C)CN5C(=O)[C@H]([C@@H](C)O)NC(=O)[C@H]([C@H](O)[C@@H](O)c5ccc(O)cc5)NC(=O)[C@@H]5C[C@@H](O)CN5C(=O)[C@H]([C@@H](C)O)NC4=O)cc3)cc2)cc1` [anidulafungin] ({pTerphenylCO(4''-OnC5H11)}-[Orn(4R-OH,5R-OH)]T[Hyp][hTyr(3S-OH,4S-OH)]T[Pro(3S-OH,4S-Me)]; lactam 1-C; N-terminus assumed), in the data set on Candida parapsilosis, the MIC amounted to 2 µg/mL (≈ 1.75 µM) and the “Susceptibility” value is on record as “susceptible”.
As for `OC(Cn1cncn1)(Cn1cncn1)c1ccc(F)cc1F` [fluconazole], in the data set on Candida parapsilosis (read-out: MIC), the MIC stood at 0.5 µg/mL (≈ 1.63 µM). For the same molecule, the “Susceptibility” value with Candida parapsilosis is “susceptible”.
For the molecule `CCC(C)n1ncn(-c2ccc(N3CCN(c4ccc(OCC5COC(Cn6cncn6)(c6ccc(Cl)cc6Cl)O5)cc4)CC3)cc2)c1=O` (stereo not shown) [itraconazole], the MIC in the data set on Candida parapsilosis (read-out: MIC) is 0.06 µg/mL (≈ 0.085 µM). The “Susceptibility” value in the data set on Candida parapsilosis is given as “susceptible”.
As for `CCCCCOc1ccc(-c2cc(-c3ccc(C(=O)N[C@H]4C[C@@H](O)[C@@H](O)NC(=O)[C@@H]5[C@@H](O)[C@@H](C)CN5C(=O)[C@H]([C@H](O)CC(N)=O)NC(=O)[C@H]([C@H](O)[C@@H](O)c5ccc(O)c(OS(=O)(=O)O)c5)NC(=O)[C@@H]5C[C@@H](O)CN5C(=O)[C@H]([C@@H](C)O)NC4=O)cc3)no2)cc1` [micafungin] (X1-[Orn(4R-OH,5R-OH)]T[Hyp][hTyr(3S-OH,4S-OH,3'-OSO3H)][Gln(3R-OH)][Pro(3S-OH,4S-Me)]; lactam 1-C), the “Plasma Cmax/MIC ratio” value in data set [1] (8 mg/kg/day micafungin dose) is on record as over 10. Further, the Cmax in data set [1] (human, in vivo, iv, 8 mg/kg/day i.v. over one hour, third day of therapy, plasma, HPLC, read-out: Plasma micafungin concentration, 1 h after infusion (C max)) was 11800 ng/mL. Also, the level at -0.5 h in data set [1] (human, iv, 8 mg/kg/day i.v. over one hour, third day of therapy, plasma, HPLC, heel puncture blood samples, read-out: Plasma micafungin concentration, 30 min before infusion (C min)) stood at 3730 ng/mL. Moreover, the level at 2 h in data set [1] (human, iv, 8 mg/kg/day i.v. over one hour, third day of therapy, plasma, HPLC, read-out: Plasma micafungin concentration, 2 h after infusion) came out at 9700 ng/mL. Also, in data set [1] (human, iv, 8 mg/kg/day i.v. over one hour, third day of therapy, plasma, HPLC, read-out: Plasma micafungin concentration, 8 h after infusion), the level at 8 h stood at 7900 ng/mL. For the same molecule, the “Side effects / tolerability” value in data set [2] is “did not cause side effects”. Further, the “Side effects / tolerability” value in data set [2] (listed as Micafungin) was “well tolerated”. Moreover, the “Aspartate aminotransaminase and alanine aminotransaminase” value in data set [2] (rapidly returned within normal range after discontinuation of therapy) is “transient increase”. Moreover, the Response entry in data set [3] was “high response”. Further, the Clinical efficacy result in data set [4] was “effective”. Also, in the data set on Candida parapsilosis, the MIC was determined as 0.5 µg/mL (≈ 0.394 µM) and the “Susceptibility” value was “susceptible”.
For `C[C@@H](c1ncncc1F)[C@](O)(Cn1cncn1)c1ccc(F)cc1F` [voriconazole], the MIC in the data set on Candida parapsilosis (read-out: MIC) was under 0.008 µg/mL. For the same molecule, the “Susceptibility” value in the data set on Candida parapsilosis was “susceptible”.

(Values after paper PMC8308678, “Treatment with Micafungin in a Preterm Neonate with an Invasive Candida parapsilosis Infection after a Severe Terlipressin-Induced Skin Necrosis” (Pathogens, 2021).)
